Series [1] concerns experimental allergic encephalitis (EAE). As to the kind of experiment: experimental allergic encephalitis (EAE) model induced by intraplantar myelin basic protein (fragment 68-84) in Freund's complete adjuvant. The series is classed as in vivo. Conditions: EAE in Lewis rats, administered orally from day zero of induction. The text has this:
The activity of the compounds of formula (I) was investigated in the model of experimental allergic encephalitis (EAE) induced in Lewis rats by the intraplantar administration of myelin basic protein (MBP) (fragment 68-84) in a Freund's complete adjuvant (FCA) enriched in Mycobacterium tuberculosis, according to the protocol published by Martin and Near (Journal of Neuroimmunology, 1995, 241-245).
EAE is an inflammatory autoimmune disease of the central nervous system which presents demyelinating lesions reminiscent of human multiple sclerosis.

Structures are written as SMILES. Counter-ions that a name gives are not always drawn.

For the compound `CCCCCc1ccc(CCN2CC=C(c3cccc(C(F)(F)F)c3)CC2)cc1C` (as salt: oxalate), the melting point (commonly the temperature, or range, at which the solid turns liquid) lay in the range of 140 to 143 °C. In the case of `Cl.FC(F)(F)c1cccc(C2=CCN(CCc3ccc4ccccc4c3)CC2)c1` [1-(2-naphth-2-ylethyl)-4-(3-trifluoromethylphenyl)-1,2,3,6-tetrahydropyridine hydrochloride], the “severity of the disease (paralysis of the back paws)” value in series [1] is reported as “statistically less severe”. Moreover, in series [1] (compared with animals treated with the vehicle only), the “weight loss of the treated animals” value was “significantly lower”. As for `FC(F)(F)c1cccc(C2=CCN(CC(c3ccccc3)c3ccccc3)CC2)c1` (as salt: hydrochloride), the melting point lay in the range of 207 to 210 °C.

Source of the values: patent publication US6344464B1, “Use of tetrahydropyridine derivatives to prepare medicines for treating diseases causing demyelination” (Sanofi-Synthelabo, priority 1997, dated 2002).
